The term IC50 denotes the midpoint of a concentration-inhibition curve. One may read the kinact as the maximal first-order rate at which the target is inactivated.

Results on two molecules are retold here after paper PMC11938014, “Development and Application of Small Molecule–Peptide Conjugates as Cathepsin K-Specific Covalent Irreversible Inhibitors in Human Osteoclast and Lung Cancer” (JACS Au, 2025).

Experiment [1] deals with T1, CTSK in U2-OS and U-87 MG cells (Homo sapiens, UniProt P43235).
T1 construct: endogenous in cells; host or cells: U2-OS and U-87 MG
T1 sequence (P43235 115-329): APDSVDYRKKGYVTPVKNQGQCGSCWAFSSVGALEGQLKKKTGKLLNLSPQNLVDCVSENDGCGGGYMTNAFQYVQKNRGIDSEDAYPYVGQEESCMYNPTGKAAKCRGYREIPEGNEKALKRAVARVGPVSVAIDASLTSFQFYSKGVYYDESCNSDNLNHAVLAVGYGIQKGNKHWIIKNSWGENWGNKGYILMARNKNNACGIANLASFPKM
Put plainly: Fluorescence microscopy of CTSK inhibition in cell lines (GD32 probe). In kind it is cell-based. Particulars: 3 μM, 2 h. As to the method: (§1) We next corroborated CTSK-specific inhibition by fluorescence microscopy studies of OC. Human OC were grown on 8-well plates; the intact cells were treated with either of the CTSK inhibitors or with the vehicle and then with the CTSK-specific fluorescent ABP GD32.[19] The fluorescence microscopy pictures were acquired following cell fixation, which permitted imaging and evaluating CTSK activity and inhibition in cells. […] As the inhibitors are specific to CTSK, they could not block the fluorescence signals of GB123 associated with other cathepsins (B, L, S) (Figure 8b).
Figure 8 Detection of inhibition of endogenous cathepsin K in intact cells by fluorescence microscopy. Enriched human monocytes from peripheral blood mononuclear cells (PBMC) were isolated from healthy donors’ blood and were treated for 14 days with M-CSF and RANKL or M-CSF alone, as indicated. Osteoclast cells were treated with vehicle (DMSO) or indicated inhibitors [3 μM] in a culture medium for 2 h, followed by incubation with (a) GD32 (a specific CTSK ABP) for 8 h or (b) GB123 for 2 h. Similar to those described in panel (a), cultures of U2-OS cells (c) and U-87 MG cells (d) were grown in 8-well chambers. Cells were pretreated with either the DMSO or [3 μM] of indicated specific CTSK inhibitors for 2 h and then labeled by the addition of 1.25 μM GD32 to the culture medium for 24 h (U2-OS) or 2 h (U-87 MG). […]

Experiment [2] deals with T2, Recombinant human cathepsin S (Homo sapiens, UniProt P25774).
T2 construct: made in house
T2 sequence (P25774 115-331): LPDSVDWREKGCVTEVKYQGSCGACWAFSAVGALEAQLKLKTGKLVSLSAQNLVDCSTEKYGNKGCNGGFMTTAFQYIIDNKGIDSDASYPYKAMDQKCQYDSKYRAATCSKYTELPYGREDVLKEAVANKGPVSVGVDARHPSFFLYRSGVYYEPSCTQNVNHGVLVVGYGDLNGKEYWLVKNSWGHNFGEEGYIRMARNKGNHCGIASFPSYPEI
Put plainly: Recombinant cathepsin inhibition, gel-based competition with GB123 probe. In kind it is biochemical. Particulars: Figure 2, read-out: IC50 [μM] CTSS. How it is done:
In-gel fluorescence analysis was used to detect the residual activity of the cathepsins by applying pan-cathepsin probe GB123 to detect the stable enzyme–probe complex. This approach is used for testing inhibition and selectivity.[37],[41]
Recombinant human cathepsin L (0.5 μM), cathepsin B (0.5 μM), cathepsin K (0.5 μM), and cathepsin S (0.5 μM) were pretreated with different concentrations of inhibitors (GD compounds, odanacatib) for 1 h in reaction buffer (50 mM acetate, 2 mM dithiothreitol (DTT), and 5 mM MgCl2, pH 5.5) at 37 °C. GB123 (1 μM) was added and incubated with samples for 60 min at 37 °C.[37],[41] The reaction was stopped by the addition of sample buffer 4× (40% glycerol, 0.2 M Tris/HCl pH 6.8, 20% β-mercaptoethanol, 12% SDS, and 0.4 mg/mL bromophenol blue). Samples were then boiled, separated on a 12.5% SDS gel, and scanned for fluorescence by a Typhoon scanner FLA 9500 at excitation and emission wavelengths of 635 and 670 nm for GB123.

In experiment [3] the target is T3, endogenous cathepsin K in human osteoclasts (Homo sapiens, UniProt P43235).
T3 construct: endogenous in cells; host or cells: primary human osteoclasts differentiated from blood monocytes with M-CSF and RANKL
T3 sequence (P43235 115-329): T1 sequence (P43235 115-329)
Put plainly: Fluorescence microscopy of CTSK inhibition in human osteoclasts. The note with it: human OC, 3 μM, 2 h; for fluorescence signal of pan-cathepsin probe GB123: then GB123 2 h; for CTSK activity labeled by GD32 probe: then GD32 8 h. In kind it is cell-based. As to the method:
as §1
Figure 8 Detection of inhibition of endogenous cathepsin K in intact cells by fluorescence microscopy. Enriched human monocytes from peripheral blood mononuclear cells (PBMC) were isolated from healthy donors’ blood and were treated for 14 days with M-CSF and RANKL or M-CSF alone, as indicated. Osteoclast cells were treated with vehicle (DMSO) or indicated inhibitors [3 μM] in a culture medium for 2 h, followed by incubation with (a) GD32 (a specific CTSK ABP) for 8 h or (b) GB123 for 2 h. Similar to those described in panel (a), cultures of U2-OS cells (c) and U-87 MG cells (d) were grown in 8-well chambers. Cells were pretreated with either the DMSO or [3 μM] of indicated specific CTSK inhibitors for 2 h and then labeled by the addition of 1.25 μM GD32 to the culture medium for 24 h (U2-OS) or 2 h (U-87 MG). After fixation, cells were stained with 4′,6-diamidino-2-phenylindole (DAPI) (nucleus), and images were captured by confocal microscopy.
Cells were seeded in 8-well chambers and then treated with an inhibitor or vehicle for 2 h. Cells were then labeled with the indicated probes for the indicated times and then washed with PBS, fixed with cold methanol, and mounted with DAPI-Fluoromount-G (SouthernBiotech, 0100-20) before visualization by confocal microscopy. Zeiss Confocal LSM 980 Microscope with Zen software was used with Airyscan (Germany).

The target of experiment [4] is T4, CTSL (Homo sapiens, UniProt P07711).
T4 construct: made in house
T4 sequence (P07711 114-333): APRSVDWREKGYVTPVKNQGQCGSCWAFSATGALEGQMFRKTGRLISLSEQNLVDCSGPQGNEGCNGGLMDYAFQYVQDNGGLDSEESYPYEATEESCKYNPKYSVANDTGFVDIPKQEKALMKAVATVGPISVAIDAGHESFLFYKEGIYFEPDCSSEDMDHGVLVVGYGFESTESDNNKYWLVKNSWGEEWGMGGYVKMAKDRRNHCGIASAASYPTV
Put plainly: Kinetic evaluation of recombinant cathepsin inhibition, fluorogenic substrate Z-RR-AMC. In kind it is biochemical. How it is done:
(§2) Cathepsin (0.4 nM, CatK) or 5 nM (CatS, CatB, and CatL) were each mixed with inhibitors before adding the fluorogenic substrate. The proteases were then reacted with their substrates, Z-RR-AMC (CatL) or Z-FR-AMC (CatS, CatB, and CatK), for 30 min at 37 °C in the phosphate buffer (100 mM Na2HPO4/NaH2PO4, 50 mM NaCl, 5 mM DTT, 0.1% PEG-6000, at pH 6). Reactions were done in 96-well black flat-bottom microplates (Greiner, Germany); fluorescence (Ex/Em 370 and 460 nm) was measured by a Tecan INFINITE M1000 pro plate reader (Tecan, Switzerland) in the presence of inhibitors or vehicle. For irreversible inhibitors, reaction data were analyzed by using the one-phase association formula in GraphPad Prism 9 software: Y = Y0 + (plateau – Y0) × (1 – exp(−K × X)), where Y0 and Y denote the fluorescence signals at times 0 and t, respectively, K represents the observed reaction rate kobs, and X signifies the […]. The inactivation rates at each inhibitor concentration were determined by subtracting the inactivation observed in the control sample: kobs – kctrl. The maximum inactivation rate (kinact) was derived as the asymptote from the equation Y = kinact × X/(Ki^app + X), where X represents the inhibitor concentration, Y is the observed inactivation rate for each X, and Ki^app is the apparent inhibition constant. Ki values were derived from IC50 or Ki^app using the equations Ki = Ki^app/(1 + […]) and IC50 = E0/2 + Ki^app, where Km represents the Michaelis–Menten constant, S denotes substrate concentration, and E0 indicates cathepsin concentration. The maximum inhibitor dose in the experiment was 50 μM. Measurements were conducted in multiple independent duplicates. Average values are listed.

The target of experiment [5] is T5, CTSB (Homo sapiens, UniProt P07858).
T5 construct: made in house
Put plainly: Kinetic evaluation of recombinant cathepsin inhibition, fluorogenic substrate Z-FR-AMC. In kind it is biochemical. As to the method: as §2

Take `CC(C)C[C@H](N[C@@H](c1ccc(-c2ccc(S(C)(=O)=O)cc2)cc1)C(F)(F)F)C(=O)NCC(=O)COC(=O)[C@@H]1CCCN1C(=O)[C@H](CC(C)C)NC(=O)OCC1c2ccccc2-c2ccccc21` [GD20]: the “CTSK activity labeled by GD32 probe” value in experiment [1] is reported as “block CTSK activity”; in experiment [3] it was “completely abolished CTSK activity”. Also, the 50% inhibitory concentration (IC50) in experiment [2] turned out to be 13 ± 2.8 µM. Also, the “fluorescence signal of pan-cathepsin probe GB123” value in experiment [3] is reported as “only a partial reduction”. Moreover, the Ki in experiment [4] (maximum inhibitor dose 50 μM) and in experiment [5] (maximum inhibitor dose 50 μM) was above 50 µM throughout.
Take `CC(C)C[C@H](N[C@@H](c1ccc(-c2ccc(S(C)(=O)=O)cc2)cc1)C(F)(F)F)C(=O)NCC(=O)COC(=O)[C@@H]1CCCN1C(=O)[C@H](CCC(N)=O)NC(=O)OCC1c2ccccc2-c2ccccc21` [GD38]: the “CTSK activity labeled by GD32 probe” value in experiment [1] was “block CTSK activity”; in experiment [3], “completely abolished CTSK activity”. For the same molecule, in experiment [2], the IC50 was determined as 8.3 ± 2.3 µM. In addition, the “fluorescence signal of pan-cathepsin probe GB123” value in experiment [3] was “only a partial reduction”. In addition, in experiment [4], the “type of inhibition, CTSL” value is listed as “irreversible”. Further, the Ki in experiment [4] (irreversible inhibitor) and in experiment [5] (irreversible inhibitor) was above 50 µM in each case. For the same molecule, the inactivation rate constant (kinact) in experiment [4] (read-out: kinact (at 50 μM), CTSL) came out at 0.0045 s⁻¹; in experiment [5] (read-out: kinact (at 50 μM), CTSB) it was 0.0072 s⁻¹. For the same molecule, the “type of inhibition, CTSB” value in experiment [5] is “irreversible”.
